Assay results: article PMC12693167, “Design, Synthesis and Anticancer Activity of 6-Substituted-1-(3,4,5-trimethoxyphenyl)-1H-indole Against Tubulin Polymerisation” (Molecules, 2025)

How the values were obtained:
[1] = molecular target: T1, Porcine brain tubulin protein (Sus scrofa, UniProt P02554); assay: In vitro tubulin polymerization assay; format: biochemical; conditions: 10 μM
T1 construct: Porcine brain tubulin protein was dissolved in EM buffer; from tissue; host or cells: porcine brain
Description: The ability of compound 3g to disrupt microtubule dynamics was assessed using an in vitro tubulin polymerization assay.
Porcine brain tubulin protein was dissolved in EM buffer containing 5% glycerol (80 mM PIPES, 2 mM GTP, 2 mM MgCl2, and 0.5 mM EGTA, pH 6.9). Compounds were diluted in EM buffer to final concentrations of 50, 25, 10, 5, and 2.5 μM and added to a pre-warmed 384-well plate, followed by pre-incubation at 37 °C. Subsequently, 14 μL of the tubulin-GTP mixture was added to each well containing the test compounds. Tubulin polymerization was monitored by measuring absorbance at 340 nm every minute for 60 min. […] Each assay was performed in triplicate.
Absorbance at 340 nm was determined every 1 min.

[2] = test system: B16F10 melanoma tumors in BALB/c mice; assay: In vivo antitumor efficacy, subcutaneous B16-F10 melanoma model; set-up: species or system mouse; conditions: paclitaxel 10 mg/kg i.p. once daily, 14 days, from tumor weight
Description: The in vivo antitumor activity of compound 3g was evaluated using a mouse melanoma tumor model in BALB/c mice. Tumors were established by subcutaneous inoculation of B16F10 cells, and treatment was initiated when tumors reached a measurable size. Mice were administered vehicle control, paclitaxel (PTX, 10 mg/kg), or compound 3g (20 and 50 mg/kg) via intraperitoneal injection once daily for 14 consecutive days.
All animal procedures were approved by the Animal Ethics Committee of the Naval Medical University (permit number: EC11-055). Male BALB/c mice (6–8 weeks old, average initial body weight approximately 18–20 g) were purchased from Shanghai SLAC Laboratory Animal Co., Ltd. The inhibitory effect of compound 3g was evaluated using a subcutaneous B16-F10 melanoma xenograft model. Log-phase B16F10 cells were suspended in PBS and subcutaneously injected into mice (200 μL containing 8 × 10^5 cells per mouse) to establish tumors. Mice were randomly divided into control and treatment groups (n = 8). Compound 3g and paclitaxel were dissolved in a vehicle consisting of DMSO:PEG:Tween-80:saline (v/v/v/v, 5:35:10:50) to the desired concentrations. Treatments (paclitaxel, 10 mg/kg; compound 3g, 20 and 50 mg/kg, doses calculated on a body-weight basis) and vehicle were administered once daily via intraperitoneal injection for 14 consecutive days. Body weights were monitored throughout the study to assess acute toxicity. Tumor volumes were measured using calipers and calculated with the formula: a × b^2 × 0.5, where a and b represent the larger and smaller tumor diameters, respectively. On day 14, mice were sacrificed and tumors were excised and weighed. […] Major organs (liver and kidneys) were collected, fixed in 4% paraformaldehyde, processed into paraffin sections, stained with hematoxylin and eosin (H&E), and examined microscopically.
Murine melanoma B16-F10 xenograft tumors were established in mice, which were then administered vehicle, PTX (10 mg/kg per day), compound 3g (20 mg/kg per day), and compound 3g (50 mg/kg per day) for 14 days. […]

T1 sequence (P02554 whole entry): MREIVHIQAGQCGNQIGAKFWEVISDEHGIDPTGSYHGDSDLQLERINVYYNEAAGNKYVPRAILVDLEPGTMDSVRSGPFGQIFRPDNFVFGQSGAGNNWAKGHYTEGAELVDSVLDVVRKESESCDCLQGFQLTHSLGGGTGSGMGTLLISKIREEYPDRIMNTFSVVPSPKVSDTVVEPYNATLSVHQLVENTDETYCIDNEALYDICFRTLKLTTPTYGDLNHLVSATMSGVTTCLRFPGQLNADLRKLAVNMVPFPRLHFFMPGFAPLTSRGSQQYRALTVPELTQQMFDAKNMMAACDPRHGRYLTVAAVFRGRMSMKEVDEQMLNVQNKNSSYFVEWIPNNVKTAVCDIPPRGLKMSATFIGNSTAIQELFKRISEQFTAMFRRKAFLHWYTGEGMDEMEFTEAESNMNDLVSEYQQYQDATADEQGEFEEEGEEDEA
T1 sequence (P02550 whole entry partner): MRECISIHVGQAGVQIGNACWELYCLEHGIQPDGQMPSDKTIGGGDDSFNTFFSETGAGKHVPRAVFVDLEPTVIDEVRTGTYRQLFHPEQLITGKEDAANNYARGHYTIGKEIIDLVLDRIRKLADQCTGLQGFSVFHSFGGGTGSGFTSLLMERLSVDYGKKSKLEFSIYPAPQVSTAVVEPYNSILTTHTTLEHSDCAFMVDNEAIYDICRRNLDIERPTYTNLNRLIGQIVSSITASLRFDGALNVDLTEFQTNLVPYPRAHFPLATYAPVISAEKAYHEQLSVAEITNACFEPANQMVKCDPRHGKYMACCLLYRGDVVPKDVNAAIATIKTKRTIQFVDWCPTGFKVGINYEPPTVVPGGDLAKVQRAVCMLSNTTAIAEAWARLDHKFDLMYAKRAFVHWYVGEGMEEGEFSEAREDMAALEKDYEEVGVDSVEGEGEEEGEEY

- effect on tubulin polymerization (positive controls) [1]: stabilizing
Structure (SMILES): CC(=O)O[C@H]1C(=O)[C@@]2(C)[C@H]([C@H](OC(=O)c3ccccc3)[C@]3(O)C[C@H](OC(=O)[C@H](O)[C@@H](NC(=O)c4ccccc4)c4ccccc4)C(C)=C1C3(C)C)[C@]1(OC(C)=O)CO[C@@H]1C[C@@H]2O [paclitaxel, reference compound]
- tumor growth inhibition (TGI) [2]: 59.84%
